Results on 13 molecules are retold here after patent publication US8518916B2, “Heterocyclic derivatives as M-GLU5 antagonists” (Recordati Ireland Limited, priority 2007, dated 2013).

One test relates to conscious rats. Briefly: Cystometry in conscious rats (bladder volume capacity). Type of test: in vivo, rat. Conditions: for "In vivo" cystometry MED (Minimal Effective Dose that induces statistically significant increase of bladder volume capacity): oral; for effect on bladder volume capacity: 1-3 h after treatment. The procedure:
Male Sprague-Dawley rats [Crl: CD® (SD) IGS BR] of 300-400 g b.w. supplied by Charles River Italia were used. The animals were housed with free access to food and water and maintained on a forced 12-hour-light/12-hour-dark cycle at 22-24° C. of temperature, except during the experiment. To quantify urodynamic parameters in conscious rats, cystometrographic studies were performed according to the procedure previously reported (Guarneri et al., Pharmacol. Res. 24: 175, 1991).
Briefly, the rats were anaesthetised by intraperitoneal administration of 3 ml/kg of Equithensin solution (pentobarbital 30 mg/kg and chloral hydrate 125 mg/kg) and placed in a supine position. An approximately 10 mm long midline incision was made in the shaved and cleaned abdominal wall. The urinary bladder was gently freed from adhering tissues, emptied and then cannulated via an incision in the bladder body, using a polyethylene cannula (0.58 mm internal diameter, 0.96 mm external diameter) which was permanently sutured with silk thread. The cannula was exteriorised through a subcutaneous tunnel in the retroscapular area, where it was connected to a plastic adapter in order to avoid the risk of removal by the animal. For drug testing, the rats were utilised one day after implantation.
On the day of the experiment, the rats were placed in modified Bollman cages, i.e., restraining cages that were large enough to permit the rats to adopt a normal crouched posture, but narrow enough to prevent turning around. After a stabilisation period of about 20 minutes, the free tip of the bladder cannula was connected through a T-shaped tube to a pressure transducer (Statham P23XL) and to a peristaltic pump (Gilson Minipuls 2) for continuous infusion of a warm (37° C.) saline solution into the urinary bladder, at a constant rate of 0.1 ml/minute. The intraluminal-pressure signal during infusion of saline into the bladder (cystometrogram) was continuously recorded on a polygraph (Rectigraph-8K San-ei with BM614/2 amplifier from Biomedica Mangoni) or stored on PC by data acquisition system (PowerLab, Chart 4 software, AD Instruments). From the cystometrogram, bladder volume capacity (BVC) was evaluated. BVC (in ml) is defined as the volume of saline infused into the bladder necessary to induce detrusor contraction followed by micturition. Basal BVC value was evaluated as the mean of the values observed in the cystometrograms recorded in an initial period of 30-60 minutes. At this point in the assay, the infusion was interrupted and the test compounds were administered orally by a stomach tube. The bladder infusion restarted and changes in BVC were evaluated from the mean values obtained in the cystometrograms observed during 1, 2, and 3 hours after treatment. The compounds were administered in a volume of 2 ml/kg. Groups of control animals received the same amount of vehicle corresponding to a solution 0.5% methocel in water.
Under the given test conditions, measurement of BVC is equivalent to measurement of interval time between micturitions.
Each experimental group was composed of 4-11 animals. All data were expressed as mean±standard error. The percent change of BVC versus the basal value, as well as Δ value (difference in ml) of BVC (BVC at time “x” minus basal value), were also evaluated for each rat/time. In the figures, data are reported as % change versus the basal value.
Statistical analysis on BVC values, as well as on Δ values, was performed by S.A.S./STAT software, version 6.12. The difference between vehicle and active treatment effect was evaluated on Δ values of BVC, whereas the difference between the values at different times versus the basal values was evaluated on original BVC data.

For the next test, the target named is T1, mGlu5 receptor (Rattus norvegicus, UniProt P31424).
T1 construct: from tissue; host or cells: forebrain (cortex, striatum and hippocampus) of male Sprague Dawley rats
Briefly: Radioligand binding assay ([3H]MPEP) at metabotropic glutamate receptor 5 in rat brain. Conditions: rat forebrain membranes, 4 nM [3H]MPEP; read-out: affinity (Ki) for mGlu5 receptor. The procedure: Radioligand Binding Assay at metabotropic glutamate receptor 5 in rat brain.
a) Membrane preparation: male Sprague Dawley rats (200-300 g, Charles River, Italy) were killed by cervical dislocation and the forebrain (cortex, striatum and hippocampus) was homogenized (2×20 sec) in 50 vols of cold 50 mM Tris buffer pH 7.4, using a Politron homogenizer (Kinematica). Homogenates were centrifuged at 48000×g for 15 min, resuspended in 50 vols of the same buffer, incubated at 37° C. for 15 min and centrifuged and resuspended two more times. The final pellets were frozen and stored at −80° C. until use.
b) Binding assay: pellets from rat forebrain were resuspended in 100 vols of 20 mM HEPES, 2 mM MgCl2, 2 mM CaCl2, pH 7.4. The membranes were incubated in a final volume of 1 ml for 60 min at 25° C. with 4 nM [^3H]MPEP in the absence or presence of competing drugs. Non-specific binding was determined in the presence of 10 μM MPEP (Spooren W. et al., Trends Pharmacol Sci. 22, 331-337, 2001). The incubation was stopped by the addition of cold Tris buffer pH 7.4 and rapid filtration through 0.5% polyethyleneimine pretreated Filtermat 1204-401 (Wallac) filters. The filters were then washed with cold buffer and the radioactivity retained on the filters was counted by liquid scintillation spectrometry. […]

T1 sequence (P31424 21-1203): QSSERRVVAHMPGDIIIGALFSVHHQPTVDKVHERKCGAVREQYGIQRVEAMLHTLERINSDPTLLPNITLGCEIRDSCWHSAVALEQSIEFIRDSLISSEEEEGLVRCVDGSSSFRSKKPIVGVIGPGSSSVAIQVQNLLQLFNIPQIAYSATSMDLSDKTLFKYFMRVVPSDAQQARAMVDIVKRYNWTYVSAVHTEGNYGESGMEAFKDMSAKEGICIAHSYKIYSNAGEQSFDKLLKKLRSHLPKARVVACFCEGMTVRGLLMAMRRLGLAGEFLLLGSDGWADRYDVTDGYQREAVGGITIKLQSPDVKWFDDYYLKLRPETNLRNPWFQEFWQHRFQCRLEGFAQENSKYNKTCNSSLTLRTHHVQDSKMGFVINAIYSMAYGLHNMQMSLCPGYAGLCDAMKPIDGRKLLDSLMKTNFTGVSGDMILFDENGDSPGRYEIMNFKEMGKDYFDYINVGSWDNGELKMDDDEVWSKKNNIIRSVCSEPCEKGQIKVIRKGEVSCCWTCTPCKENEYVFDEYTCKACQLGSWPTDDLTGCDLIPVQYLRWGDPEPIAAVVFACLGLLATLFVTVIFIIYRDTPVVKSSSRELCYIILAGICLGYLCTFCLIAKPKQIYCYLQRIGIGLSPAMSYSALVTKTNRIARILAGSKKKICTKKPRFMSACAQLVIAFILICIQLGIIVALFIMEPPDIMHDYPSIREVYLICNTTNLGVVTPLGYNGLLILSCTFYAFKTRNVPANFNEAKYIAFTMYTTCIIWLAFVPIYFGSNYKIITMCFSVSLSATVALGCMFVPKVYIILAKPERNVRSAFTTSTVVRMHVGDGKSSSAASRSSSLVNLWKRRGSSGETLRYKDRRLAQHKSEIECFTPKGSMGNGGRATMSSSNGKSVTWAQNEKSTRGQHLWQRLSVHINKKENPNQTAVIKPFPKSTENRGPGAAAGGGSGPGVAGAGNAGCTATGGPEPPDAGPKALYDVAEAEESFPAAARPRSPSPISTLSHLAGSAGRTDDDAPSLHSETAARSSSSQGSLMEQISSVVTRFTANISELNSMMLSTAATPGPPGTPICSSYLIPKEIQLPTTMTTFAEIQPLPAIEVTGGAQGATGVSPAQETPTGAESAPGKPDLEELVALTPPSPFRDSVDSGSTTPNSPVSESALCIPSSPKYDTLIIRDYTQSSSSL

With `Cc1cccc(C#CC=C2CCN(c3ccc(C#N)cc3[N+](=O)[O-])CC2)n1` [Example 56, 4-{4-[3-(6-Methylpyridin-2-yl)prop-2-ynylidene]piperidin-1-yl}-3-nitrobenzonitrile], the “"In vivo" cystometry MED (Minimal Effective Dose that induces statistically significant increase of bladder volume capacity)” value in the test on conscious rats worked out at 1 mg/kg os.
By Ki is commonly meant a dissociation constant, usually derived from enzyme kinetics or from competition with a known ligand. On to `Cc1cccc(C#CC=C2CCN(c3ncccc3[N+](=O)[O-])CC2)n1` [Example 1, 2-{4-[3-(6-Methylpyridin-2-yl)prop-2-ynylidene]piperidin-1-yl}-3-nitropyridine], for which the Ki at mGlu5 receptor worked out at 0.37 nM. Moreover, the “effect on bladder volume capacity” value in the test with conscious rats (1 mg/kg orally) and in the test on conscious rats (3 mg/kg orally) was “proved effective in increasing the bladder volume capacity” each time. Besides, in the test with conscious rats, the “"In vivo" cystometry MED (Minimal Effective Dose that induces statistically significant increase of bladder volume capacity)” value is on record as 3 mg/kg os.
Take `Cc1cccc(C#CC=C2CCN(c3ccccc3C#N)CC2)n1` [Example 43, 2-{4-[3-(6-Methylpyridin-2-yl)prop-2-ynylidene]piperidin-1-yl}benzonitrile]: the “"In vivo" cystometry MED (Minimal Effective Dose that induces statistically significant increase of bladder volume capacity)” value in the test with conscious rats came out at 3 mg/kg os.
In the case of `O=[N+]([O-])c1cccnc1N1CCC(=CC#Cc2cc(F)cc(F)c2)CC1` [Example 202, 2-{4-[3-(3,5-Difluorophenyl)prop-2-yn-1-ylidene]piperidin-1-yl}-3-nitropyridine], the “"In vivo" cystometry MED (Minimal Effective Dose that induces statistically significant increase of bladder volume capacity)” value in the test with conscious rats came to 3 mg/kg os.
Still for that read-out and setting: to `Cc1cccc(C#CC=C2CCN(c3nc(C)ccc3[N+](=O)[O-])CC2)n1` [Example 5, 6-Methyl-2-[4-[3-(6-methylpyridin-2-yl)prop-2-ynylidene]piperidin-1-yl]-3-nitropyridine] belongs 0.1 mg/kg os; to `O=[N+]([O-])c1cccnc1N1CCC(=CC#Cc2ccc(F)nc2)CC1` [Example 35, 2-{4-[3-(6-Fluoropyridin-3-yl)prop-2-ynylidene]piperidin-1-yl}-3-nitropyridine], 3 mg/kg os; to `O=[N+]([O-])c1cccnc1N1CCC(=CC#Cc2ccccn2)CC1` [Example 9, 3-Nitro-2-[4-(3-pyridin-2-ylprop-2-ynylidene)piperidin-1-yl]pyridine], 1 mg/kg os.
The same measure, in the same setting: in the case of `O=[N+]([O-])c1cccnc1N1CCC(=CC#Cc2cccc(Br)c2)CC1` [Example 208, 2-{4-[3-(3-Bromophenyl)prop-2-yn-1-ylidene]piperidin-1-yl}-3-nitropyridine] it was 0.3 mg/kg os.
Regarding `Cc1nc(C#Cc2cccnc2)cs1` [MTEP, reference compound], the “effect on bladder volume capacity” value with conscious rats (1 mg/kg orally) is on record as “only a slight increase of bladder volume capacity”; in the test with conscious rats (3 mg/kg orally), “sustained increase”. In addition, the “"In vivo" cystometry MED (Minimal Effective Dose that induces statistically significant increase of bladder volume capacity)” value in the test with conscious rats amounted to 3 mg/kg os.
As to `O=[N+]([O-])c1cccnc1N1CCC(=C(F)C#Cc2ccccc2)CC1` [Example 67, 2-[4-(1-Fluoro-3-phenylprop-2-yn-1-ylidene)piperidin-1-yl]-3-nitropyridine], in the test on conscious rats, the “"In vivo" cystometry MED (Minimal Effective Dose that induces statistically significant increase of bladder volume capacity)” value is given as 1 mg/kg os.
For `O=[N+]([O-])c1cccnc1N1CCC(=CC#Cc2ccccc2)CC1` [Example 10, 3-Nitro-2-[4-(3-phenylprop-2-ynylidene)piperidin-1-yl]pyridine], the figures for the “effect on bladder volume capacity” value in the test on conscious rats (0.3 mg/kg orally) and in the test on conscious rats (1 mg/kg orally) were “slightly increased the bladder volume capacity (not statistical significant)” and “proved effective in increasing bladder volume capacity”, respectively. In addition, in the test on conscious rats, the “"In vivo" cystometry MED (Minimal Effective Dose that induces statistically significant increase of bladder volume capacity)” value was found to be 1 mg/kg os.
As for `COc1ccc([N+](=O)[O-])c(N2CCC(=CC#Cc3cccc(C)n3)CC2)n1` [Example 6, 6-Methoxy-2-{4-[3-(6-methylpyridin-2-yl)prop-2-ynylidene]piperidin-1-yl}-3-nitropyridine], the “"In vivo" cystometry MED (Minimal Effective Dose that induces statistically significant increase of bladder volume capacity)” value with conscious rats worked out at 1 mg/kg os.
The same measure, in the same setting: to `Cc1cccc(C#CC=C2CCN(c3ccc(F)cc3[N+](=O)[O-])CC2)n1` [Example 55, 2-{3-[1-(4-Fluoro-2-nitrophenyl)piperidin-4-ylidene]prop-1-ynyl}-6-methylpyridine] belongs 0.3 mg/kg os.
